# Data: patent publication US20210403485A1, “PYRAZOLOPYRIMIDINE DERIVATIVE AS SELECTIVE TRK INHIBITOR” (SHANDONG LUYE PHARMACEUTICAL CO., LTD., priority 2018, published 2021)
# How the values were obtained:
# [1] = test system: Ba/F3 ETV6-NTRK3-G623R cells; test: Efficacy test in animals: subcutaneous xenograft, intragastric administration; type: in vivo, nude mice; settings: for TGI (tumor growth inhibition rate): day of dissection; for Tumor inhibition rate (by tumor weight) / Tumor weight: end of the test
# Method: (§1) Cells in the logarithmic growth phase were collected and resuspended in serum-free medium to a cell concentration of 2-4×10^7 cells/mL. An equal volume of matrigel was added to the cell suspension to achieve a final cell concentration of 1-2×10^7 cells/mL. 0.2 mL of tumor cell suspension was subcutaneously inoculated at the scapula of each nude mouse with the inoculation amount of 2-4×10^6 cells/mouse to prepare the animal models.
# Ba/F3 ETV6-NTRK3 cells = test: as above; type: in vivo, nude mice; settings: for TGI (tumor growth inhibition rate): day of dissection; for Tumor inhibition rate (by tumor weight) / Tumor weight: end of the test
# Method: as §1
# Ba/F3 SLC34A2-ROS1-WT = molecular target: T1, Ba/F3 SLC34A2-ROS1-WT (Homo sapiens, UniProt P08922); test: Inhibitory activity against cell proliferation (CellTiter-Glo, 72 hours); type: cell-based; settings: read-out: Half maximal inhibitory concentration IC50 of cells, Ba/F3 SLC34A2-ROS1-WT
# T1 construct: fused on or other part: N-terminal part of SLC34A2 as fusion partner (part of the key); O95436 (Sodium-dependent phosphate transport protein 2B)
# Procedure, shortened: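 Log-phase Ba/F3 cells (trypan blue viability above 90%) were treated in triplicate with a 9-point, 3-fold compound series. ATP-dependent luminescence was read after CellTiter-Glo addition, and IC50 values came from nonlinear sigmoidal dose-response fits.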
# T1 sequence (P08922 whole entry, stated change not applied, the tested form may be a part): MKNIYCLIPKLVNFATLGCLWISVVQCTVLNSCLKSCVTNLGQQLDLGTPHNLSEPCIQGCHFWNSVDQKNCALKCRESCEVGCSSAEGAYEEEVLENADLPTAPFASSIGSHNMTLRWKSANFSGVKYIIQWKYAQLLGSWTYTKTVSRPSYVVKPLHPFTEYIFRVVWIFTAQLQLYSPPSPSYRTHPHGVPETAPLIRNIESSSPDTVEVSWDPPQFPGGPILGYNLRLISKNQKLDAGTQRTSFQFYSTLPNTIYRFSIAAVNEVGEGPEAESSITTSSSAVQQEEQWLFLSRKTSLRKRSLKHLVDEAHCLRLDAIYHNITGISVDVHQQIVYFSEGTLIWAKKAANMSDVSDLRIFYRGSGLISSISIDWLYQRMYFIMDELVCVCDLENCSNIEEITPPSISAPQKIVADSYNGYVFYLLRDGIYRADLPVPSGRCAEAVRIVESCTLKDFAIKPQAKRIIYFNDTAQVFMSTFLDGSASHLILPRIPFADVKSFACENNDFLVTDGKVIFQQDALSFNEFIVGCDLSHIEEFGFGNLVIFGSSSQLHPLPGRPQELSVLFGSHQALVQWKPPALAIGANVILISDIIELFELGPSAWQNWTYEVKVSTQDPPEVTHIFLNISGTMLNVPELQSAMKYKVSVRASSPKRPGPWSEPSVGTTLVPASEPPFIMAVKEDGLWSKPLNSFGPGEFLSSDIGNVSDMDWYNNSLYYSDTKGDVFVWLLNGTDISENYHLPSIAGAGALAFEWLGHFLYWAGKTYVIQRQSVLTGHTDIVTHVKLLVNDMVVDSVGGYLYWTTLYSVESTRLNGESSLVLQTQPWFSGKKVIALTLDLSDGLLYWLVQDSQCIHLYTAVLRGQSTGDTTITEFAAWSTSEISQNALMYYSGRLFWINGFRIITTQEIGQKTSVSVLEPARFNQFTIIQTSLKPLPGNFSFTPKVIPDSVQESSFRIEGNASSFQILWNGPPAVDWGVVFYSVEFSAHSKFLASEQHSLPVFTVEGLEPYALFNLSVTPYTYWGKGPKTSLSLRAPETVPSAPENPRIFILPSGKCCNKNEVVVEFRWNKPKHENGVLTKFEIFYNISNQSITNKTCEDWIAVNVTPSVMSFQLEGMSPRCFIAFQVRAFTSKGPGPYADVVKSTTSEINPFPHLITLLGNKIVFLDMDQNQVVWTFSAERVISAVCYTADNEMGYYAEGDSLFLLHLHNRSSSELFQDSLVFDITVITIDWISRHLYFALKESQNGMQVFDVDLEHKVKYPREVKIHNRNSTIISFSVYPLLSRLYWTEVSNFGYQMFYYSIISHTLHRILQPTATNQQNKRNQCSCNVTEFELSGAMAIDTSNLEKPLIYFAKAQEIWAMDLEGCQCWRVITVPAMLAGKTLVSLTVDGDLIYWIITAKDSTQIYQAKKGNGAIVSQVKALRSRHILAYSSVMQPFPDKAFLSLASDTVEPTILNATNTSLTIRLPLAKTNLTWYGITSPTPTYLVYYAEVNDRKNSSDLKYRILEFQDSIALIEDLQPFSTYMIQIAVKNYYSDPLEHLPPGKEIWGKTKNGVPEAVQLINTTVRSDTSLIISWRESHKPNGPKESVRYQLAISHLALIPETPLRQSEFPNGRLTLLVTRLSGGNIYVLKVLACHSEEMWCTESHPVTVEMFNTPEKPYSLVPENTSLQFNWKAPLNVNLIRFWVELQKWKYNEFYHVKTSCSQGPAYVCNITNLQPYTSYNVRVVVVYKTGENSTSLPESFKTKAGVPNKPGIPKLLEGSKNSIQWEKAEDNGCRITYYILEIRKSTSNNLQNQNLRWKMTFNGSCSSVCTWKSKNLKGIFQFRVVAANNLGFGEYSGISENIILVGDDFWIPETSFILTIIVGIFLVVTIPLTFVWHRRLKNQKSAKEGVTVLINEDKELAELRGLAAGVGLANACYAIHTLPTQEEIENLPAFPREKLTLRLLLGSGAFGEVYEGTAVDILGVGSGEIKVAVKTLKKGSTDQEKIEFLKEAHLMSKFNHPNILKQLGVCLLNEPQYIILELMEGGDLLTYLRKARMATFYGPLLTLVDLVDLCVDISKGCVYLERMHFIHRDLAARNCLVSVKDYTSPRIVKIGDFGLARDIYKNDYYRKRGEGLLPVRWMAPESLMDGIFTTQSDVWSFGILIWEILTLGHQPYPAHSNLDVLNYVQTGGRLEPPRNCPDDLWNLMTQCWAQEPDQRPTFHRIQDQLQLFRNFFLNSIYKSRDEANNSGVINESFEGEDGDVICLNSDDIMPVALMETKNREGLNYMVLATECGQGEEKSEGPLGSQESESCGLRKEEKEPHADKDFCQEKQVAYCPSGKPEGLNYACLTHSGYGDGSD
smiles,measurement,setting,value
"O=C1NC2(CC2)COc2ncc(F)cc2C2COCCN2c2ccn3ncc1c3n2 (single isomer, unassigned) [WX001B]",Tumor volume,"[1]; Day 11, 10 mg/kg bid",309.67 ± 199.23 mm^3
same,Relative tumor proliferation rate T/C,"[1]; Day 11, 20 mg/kg bid",4.89%
same,Tumor volume,"[1]; Day 11, 20 mg/kg bid",169.93 ± 190.60 mm^3
same,TGI (tumor growth inhibition rate),[1]; 2.5 mg/kg bid,68.95%
same,TGI (tumor growth inhibition rate),[1]; 5 mg/kg bid,81.60%
same,TGI (tumor growth inhibition rate),[1]; 10 mg/kg bid,91.09%
same,TGI (tumor growth inhibition rate),[1]; 20 mg/kg bid,95.11%
same,Tumor inhibition rate (by tumor weight),[1]; 2.5 mg/kg bid,68.72%
same,Tumor weight,[1]; 2.5 mg/kg bid,0.54 ± 0.24 g
same,Tumor weight,[1]; 5 mg/kg bid,0.44 ± 0.13 g
same,Tumor inhibition rate (by tumor weight),"[1]; 5 mg/kg bid, 5 mg/kg",74.12%
same,Tumor inhibition rate (by tumor weight),[1]; 10 mg/kg bid,92.90%
same,Tumor weight,[1]; 10 mg/kg bid,0.12 ± 0.11 g
same,Tumor inhibition rate (by tumor weight),[1]; 20 mg/kg bid,95.75%
same,Tumor weight,[1]; 20 mg/kg bid,0.07 ± 0.06 g
same,Inhibition of growth of subcutaneous xenografts,Ba/F3 ETV6-NTRK3 cells; 2.5-20 mg/kg,in a dose-dependent manner
same,Relative tumor proliferation rate T/C,"Ba/F3 ETV6-NTRK3 cells; Day 0, 2.5 mg/kg bid",100.00%
same,Tumor volume,"Ba/F3 ETV6-NTRK3 cells; Day 0, 2.5 mg/kg bid",303.54 ± 48.83 mm^3
same,Relative tumor proliferation rate T/C,"Ba/F3 ETV6-NTRK3 cells; Day 0, 5 mg/kg bid",100.00%
same,Tumor volume,"Ba/F3 ETV6-NTRK3 cells; Day 0, 5 mg/kg bid",303.26 ± 50.47 mm^3
same,Relative tumor proliferation rate T/C,"Ba/F3 ETV6-NTRK3 cells; Day 0, 10 mg/kg bid",100.00%
same,Tumor volume,"Ba/F3 ETV6-NTRK3 cells; Day 0, 10 mg/kg bid",303.14 ± 45.09 mm^3
same,Relative tumor proliferation rate T/C,"Ba/F3 ETV6-NTRK3 cells; Day 0, 20 mg/kg bid",100.00%
same,Tumor volume,"Ba/F3 ETV6-NTRK3 cells; Day 0, 20 mg/kg bid",303.47 ± 45.79 mm^3
same,Relative tumor proliferation rate T/C,"Ba/F3 ETV6-NTRK3 cells; Day 3, 2.5 mg/kg bid",42.59%
same,Tumor volume,"Ba/F3 ETV6-NTRK3 cells; Day 3, 2.5 mg/kg bid",360.24 ± 88.80 mm^3
same,Relative tumor proliferation rate T/C,"Ba/F3 ETV6-NTRK3 cells; Day 3, 5 mg/kg bid",43.90%
same,Tumor volume,"Ba/F3 ETV6-NTRK3 cells; Day 3, 5 mg/kg bid",371.36 ± 111.74 mm^3
same,Relative tumor proliferation rate T/C,"Ba/F3 ETV6-NTRK3 cells; Day 3, 10 mg/kg bid",30.18%
same,Tumor volume,"Ba/F3 ETV6-NTRK3 cells; Day 3, 10 mg/kg bid",255.24 ± 87.04 mm^3
same,Relative tumor proliferation rate T/C,"Ba/F3 ETV6-NTRK3 cells; Day 3, 20 mg/kg bid",31.16%
same,Tumor volume,"Ba/F3 ETV6-NTRK3 cells; Day 3, 20 mg/kg bid",263.60 ± 85.49 mm^3
same,Relative tumor proliferation rate T/C,"Ba/F3 ETV6-NTRK3 cells; Day 5, 2.5 mg/kg bid",29.79%
same,Tumor volume,"Ba/F3 ETV6-NTRK3 cells; Day 5, 2.5 mg/kg bid",376.59 ± 84.87 mm^3
same,Relative tumor proliferation rate T/C,"Ba/F3 ETV6-NTRK3 cells; Day 5, 5 mg/kg bid",22.33%
same,Tumor volume,"Ba/F3 ETV6-NTRK3 cells; Day 5, 5 mg/kg bid",282.31 ± 46.30 mm^3
same,Relative tumor proliferation rate T/C,"Ba/F3 ETV6-NTRK3 cells; Day 5, 10 mg/kg bid",19.15%
same,Tumor volume,"Ba/F3 ETV6-NTRK3 cells; Day 5, 10 mg/kg bid",242.09 ± 78.53 mm^3
same,Relative tumor proliferation rate T/C,"Ba/F3 ETV6-NTRK3 cells; Day 5, 20 mg/kg bid",22.72%
same,Tumor volume,"Ba/F3 ETV6-NTRK3 cells; Day 5, 20 mg/kg bid",287.22 ± 96.26 mm^3
same,Relative tumor proliferation rate T/C,"Ba/F3 ETV6-NTRK3 cells; Day 7, 2.5 mg/kg bid",18.12%
same,Tumor volume,"Ba/F3 ETV6-NTRK3 cells; Day 7, 2.5 mg/kg bid",388.09 ± 100.42 mm^3
same,Relative tumor proliferation rate T/C,"Ba/F3 ETV6-NTRK3 cells; Day 7, 5 mg/kg bid",16.77%
same,Tumor volume,"Ba/F3 ETV6-NTRK3 cells; Day 7, 5 mg/kg bid",353.35 ± 109.82 mm^3
same,Relative tumor proliferation rate T/C,"Ba/F3 ETV6-NTRK3 cells; Day 7, 10 mg/kg bid",12.50%
same,Tumor volume,"Ba/F3 ETV6-NTRK3 cells; Day 7, 10 mg/kg bid",263.53 ± 134.53 mm^3
same,Relative tumor proliferation rate T/C,"Ba/F3 ETV6-NTRK3 cells; Day 7, 20 mg/kg bid",9.56%
same,Tumor volume,"Ba/F3 ETV6-NTRK3 cells; Day 7, 20 mg/kg bid",201.43 ± 135.76 mm^3
same,Relative tumor proliferation rate T/C,"Ba/F3 ETV6-NTRK3 cells; Day 9, 2.5 mg/kg bid",18.22%
same,Tumor volume,"Ba/F3 ETV6-NTRK3 cells; Day 9, 2.5 mg/kg bid",499.09 ± 161.54 mm^3
same,Relative tumor proliferation rate T/C,"Ba/F3 ETV6-NTRK3 cells; Day 9, 5 mg/kg bid",16.04%
same,Tumor volume,"Ba/F3 ETV6-NTRK3 cells; Day 9, 5 mg/kg bid",439.46 ± 222.47 mm^3
same,Relative tumor proliferation rate T/C,"Ba/F3 ETV6-NTRK3 cells; Day 9, 10 mg/kg bid",7.73%
same,Tumor volume,"Ba/F3 ETV6-NTRK3 cells; Day 9, 10 mg/kg bid",211.85 ± 87.87 mm^3
same,Relative tumor proliferation rate T/C,"Ba/F3 ETV6-NTRK3 cells; Day 9, 20 mg/kg bid",4.91%
same,Tumor volume,"Ba/F3 ETV6-NTRK3 cells; Day 9, 20 mg/kg bid",134.49 ± 117.51 mm^3
same,Relative tumor proliferation rate T/C,"Ba/F3 ETV6-NTRK3 cells; Day 11, 2.5 mg/kg bid",15.67%
same,Tumor volume,"Ba/F3 ETV6-NTRK3 cells; Day 11, 2.5 mg/kg bid",590.74 ± 266.98 mm^3
same,Relative tumor proliferation rate T/C,"Ba/F3 ETV6-NTRK3 cells; Day 11, 5 mg/kg bid",8.73%
same,Tumor volume,"Ba/F3 ETV6-NTRK3 cells; Day 11, 5 mg/kg bid",328.91 ± 190.07 mm^3
same,Relative tumor proliferation rate T/C,"Ba/F3 ETV6-NTRK3 cells; Day 11, 10 mg/kg bid",4.82%
same,Tumor volume,"Ba/F3 ETV6-NTRK3 cells; Day 11, 10 mg/kg bid",181.69 ± 121.62 mm^3
same,Relative tumor proliferation rate T/C,"Ba/F3 ETV6-NTRK3 cells; Day 11, 20 mg/kg bid",2.89%
same,Tumor volume,"Ba/F3 ETV6-NTRK3 cells; Day 11, 20 mg/kg bid",109.00 ± 116.94 mm^3
same,TGI (tumor growth inhibition rate),Ba/F3 ETV6-NTRK3 cells; 2.5 mg/kg bid,84.33%
same,TGI (tumor growth inhibition rate),Ba/F3 ETV6-NTRK3 cells; 5 mg/kg bid,91.27%
same,TGI (tumor growth inhibition rate),Ba/F3 ETV6-NTRK3 cells; 10 mg/kg bid,95.18%
same,TGI (tumor growth inhibition rate),Ba/F3 ETV6-NTRK3 cells; 20 mg/kg bid,97.11%
same,Tumor inhibition rate (by tumor weight),Ba/F3 ETV6-NTRK3 cells; 2.5 mg/kg bid,85.47%
same,Tumor weight,Ba/F3 ETV6-NTRK3 cells; 2.5 mg/kg bid,0.25 ± 0.15 g
same,Tumor inhibition rate (by tumor weight),Ba/F3 ETV6-NTRK3 cells; 5 mg/kg bid,89.51%
same,Tumor weight,Ba/F3 ETV6-NTRK3 cells; 5 mg/kg bid,0.18 ± 0.08 g
same,Tumor inhibition rate (by tumor weight),Ba/F3 ETV6-NTRK3 cells; 10 mg/kg bid,93.42%
same,Tumor weight,Ba/F3 ETV6-NTRK3 cells; 10 mg/kg bid,0.12 ± 0.10 g
same,Tumor inhibition rate (by tumor weight),Ba/F3 ETV6-NTRK3 cells; 20 mg/kg bid,96.47%
same,Tumor weight,Ba/F3 ETV6-NTRK3 cells; 20 mg/kg bid,0.06 ± 0.03 g
same,GI50,Ba/F3 SLC34A2-ROS1-WT,64.2 nM
